In this test the target is T1, TK (Homo sapiens, UniProt P29401).
T1 sequence (P29401 1-623): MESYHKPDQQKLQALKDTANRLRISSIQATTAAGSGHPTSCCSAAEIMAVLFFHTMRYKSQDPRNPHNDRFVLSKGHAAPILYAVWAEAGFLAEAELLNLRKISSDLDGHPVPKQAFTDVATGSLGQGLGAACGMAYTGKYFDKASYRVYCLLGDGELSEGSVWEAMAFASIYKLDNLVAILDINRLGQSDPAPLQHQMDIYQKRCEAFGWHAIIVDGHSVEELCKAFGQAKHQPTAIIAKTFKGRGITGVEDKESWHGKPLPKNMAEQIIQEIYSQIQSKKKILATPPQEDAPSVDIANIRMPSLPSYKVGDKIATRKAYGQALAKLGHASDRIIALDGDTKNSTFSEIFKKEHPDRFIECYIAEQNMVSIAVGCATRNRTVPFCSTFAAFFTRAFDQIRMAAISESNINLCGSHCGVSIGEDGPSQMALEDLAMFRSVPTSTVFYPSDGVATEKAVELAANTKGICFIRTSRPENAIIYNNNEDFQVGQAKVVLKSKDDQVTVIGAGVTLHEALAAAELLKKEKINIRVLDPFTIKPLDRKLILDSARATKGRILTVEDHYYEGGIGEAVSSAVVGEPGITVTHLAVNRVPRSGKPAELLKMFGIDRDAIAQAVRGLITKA
Put plainly: Cell-based TK inhibition in thiamine-depleted media, 96-well format. Details: endogenous in cells. To be noted: treated cells, 48 hours treatment. The method, then:
We determined the IC50 of compounds that inhibit the activity of the TPP utilizing enzymes TK, kGDH and PDH in a convenient 96-well format using an optimized version of the method described in the previous Examples.
The high thiamine levels in conventional cell culture media (e.g., DMEM (12 μM), RPMI (3 μM)) masks the inhibitory effect of such inhibitors. To measure the IC50 of such inhibitors, thus, a thiamine depleted DMEM, containing all the ingredients of normal DMEM except for thiamine (HyClone, custom order), was used. Thiamine-depleted media (TDM) is made up with thiamine-depleted DMEM, 10% FBS, which contains negligible amount of thiamine (estimated to be ˜3-5% nM) and 1% Penicillin-streptomycin.
Log-phase growing cells were trypsinized and resuspended in TDM. Optimization of the initial cell counts is recommended for each cell line to ensure that enzyme activity can be observed at the beginning and that healthy growth can continue. For cell lines that have a doubling time of approximately 24 hours and cellular transketolase levels high enough to be reliably detected with five thousand (5K) cells such as HCT116 and HT1080, 8K cells are recommended.
Media containing 8K cells (95 μl) were used to seed individual wells in a 96-well clear-bottom cell cultured treated sterile plate. […] Enzymatic inhibition was expressed as percent of control wells that were not treated with compounds. […]

These results are taken from patent US20070292888A1, “Methods for Measuring Enzyme Activities in Cells, Blood, Tumors and Tissues” (GEN-PATH PHARMACEUTICALS, INC., priority 2004, published 2007).

Consider `Cc1ccc(C[n+]2csc(CCO)c2C)c(N)n1` [N3PT, 3-[(2-amino-6-methyl-3-pyridinyl)methyl]-5-(2-hydroxyethyl)-4-methyl thiazolium], for which the half-inhibitory concentration (IC50) stood at 20 nM.
